Laboratory results taken from ChEMBL document CHEMBL1129398, “Non-peptide glycoprotein IIb/IIIa antagonists. 11. Design and in vivo evaluation of 3,4-dihydro-1 (1H)-isoquinolinone-based antagonists and ethyl ester prodrugs” (J Med Chem, 1996).

What was measured:
Canis familiaris [1] = experiment: Tmax was measured by calculating maximum time taken for ADP -induced platelet aggregation in canine platelet rich plasma at dose of 0.5 mg/kg po; Tmax hours; type: ADME, organism-based, Canis lupus familiaris; design: dose 0.5 mg/kg; details: dog, in vivo
Canis familiaris [2] = experiment: Effect on inhibition of the extent of ex vivo ADP-induced aggregation in canine platelet rich plasma at dose of 0.5 mg/kg po; type: functional; details: Canis lupus familiaris
Homo sapiens [3] = species: Homo sapiens; experiment: in vitro inhibition of human gel-filtered platelets; type: functional
Homo sapiens [4] = species: Homo sapiens; experiment: in vitro inhibition of human gel-filtered platelets using ADP agonist; type: functional
Canis familiaris [5] = experiment: Effect on inhibition of the extent of ex vivo ADP-induced aggregation in canine platelet rich plasma at dose of 0.3 mg/kg po; type: functional; details: Canis lupus familiaris
Homo sapiens [6] = species: Homo sapiens; experiment: In vitro inhibition of human gel-filtered platelets; type: functional
Canis familiaris [7] = experiment: Effect on inhibition of the extent of ex vivo ADP-induced aggregation in canine platelet rich plasma at dose of 0.1 mg/kg po; type: functional; details: Canis lupus familiaris
Canis familiaris [8] = experiment: Tmax was measured by calculating maximum time taken for ADP -induced plat let aggregation n canine platelet rich plasma at dose of 0.5 mg/kg po; Tmax hours; type: ADME, organism-based, Canis lupus familiaris; design: dose 0.5 mg/kg; details: dog, in vivo

Compound	inhibition in vivo at 0.5 mg/kg (Canis familiaris [2])	IC50 (Homo sapiens [3])	also measured
CCOC(=O)C[C@H](NC(=O)CN1CCc2ccc(N3CCNCC3)cc2C1=O)c1cccnc1	75%		T max (Canis familiaris [1]): 2.5
C#C[C@H](CC(=O)O)NC(=O)CN1CCc2ccc(N3CCNCC3)c(Cl)c2C1=O		35 nM	
C#C[C@H](CC(=O)O)NC(=O)Cn1cnc2ccc(N3CCNCC3)cc2c1=O			IC50 (Homo sapiens [4]): 330 nM
C#C[C@H](CC(=O)O)NC(=O)CN1CCc2ccc(N3CCNCC3)cc2C1=O		12 nM	inhibition in vivo at 0.3 mg/kg (Canis familiaris [5]): 80%
C#C[C@H](CC(=O)O)NC(=O)CN1CCc2ccc(-c3ccncc3)cc2C1=O			IC50 (Homo sapiens [4]): 160 nM
O=C(O)CCNC(=O)CN1CCc2ccc(N3CCNCC3)cc2C1=O			IC50 (Homo sapiens [6]): 140 nM
C#C[C@H](CC(=O)O)NC(=O)CN1CCc2cc(Cl)c(N3CCNCC3)cc2C1=O	80%	19 nM	
C#C[C@H](CC(=O)OCC)NC(=O)Cn1c(=O)[nH]c2ccc(N3CCNCC3)cc2c1=O			inhibition in vivo at 0.1 mg/kg (Canis familiaris [7]): 0%
C#C[C@H](CC(=O)O)NC(=O)CN1CCc2ccc(N3CCNCC3)cc2C1		320 nM	
O=C(O)C[C@@H](CCc1ccccc1)NC(=O)CN1CCc2ccc(N3CCNCC3)cc2C1=O	20%	16 nM	
C#C[C@H](CC(=O)O)NC(=O)CN1CCc2cc(F)c(N3CCNCC3)cc2C1=O	95%	15 nM	
O=C(O)C[C@H](NC(=O)CN1CCc2ccc(N3CCOCC3)cc2C1=O)c1cccnc1			IC50 (Homo sapiens [4]): > 300000 nM
O=C(O)C[C@H](NC(=O)CN1CCc2ccc(N3CCNCC3)cc2C1=O)c1cccnc1	100%		T max (Canis familiaris [8]): 1; IC50 (Homo sapiens [4]): 13 nM
C#C[C@H](CC(=O)O)NC(=O)Cn1c(=O)[nH]c2ccc(N3CCNCC3)cc2c1=O	0%		IC50 (Homo sapiens [4]): 27 nM
C#C[C@H](CC(=O)OCC)NC(=O)CN1CCc2ccc(N3CCNCC3)c(Cl)c2C1=O	100%		
C[C@H](CC(=O)O)NC(=O)CN1CCc2ccc(N3CCNCC3)cc2C1=O	100%	30 nM	
C#C[C@H](CC(=O)OCC)NC(=O)CN1CCc2ccc(C3CCNCC3)cc2C1=O			inhibition in vivo at 0.3 mg/kg (Canis familiaris [5]): 40%
N[C@@H](CNC(=O)CN1CCc2ccc(N3CCNCC3)cc2C1=O)C(=O)O		630 nM	
C#C[C@H](CC(=O)OCC)NC(=O)CN1CCc2cc(F)c(N3CCNCC3)cc2C1=O			inhibition in vivo at 0.3 mg/kg (Canis familiaris [5]): 100%
C#C[C@H](CC(=O)O)NC(=O)Cn1ccc2ccc(N3CCNCC3)cc2c1=O			IC50 (Homo sapiens [4]): 81 nM
O=C(O)C[C@H](NC(=O)CN1CCc2ccc(N3CCNCC3)cc2C1=O)c1ccc[n+]([O-])c1		18 nM	
C#C[C@H](CC(=O)O)NC(=O)CN1CCc2ccc(C3CCNCC3)cc2C1=O		6 nM	inhibition in vivo at 0.3 mg/kg (Canis familiaris [5]): 100%
